ChEMBL document CHEMBL1255178, “4-methylpteridinones as orally active and selective PI3K/mTOR dual inhibitors” (Bioorg Med Chem Lett, 2010)

Legend:
[1] = Antitumor activity against human U87 cells xenografted in mouse at 3 mg/kg, po after 10 days; assay type: functional, U-87MG ATCC
[2] = biological target: Serine/threonine-protein kinase mTOR (Homo sapiens, UniProt P42345)
[3] = Antitumor activity against human U87 cells xenografted in mouse at 10 mg/kg, po after 10 days; assay type: functional, U-87MG ATCC
[4] = Antitumor activity against human U87 cells xenografted in mouse at 20 mg/kg, po after 10 days; assay type: functional, U-87MG ATCC

Row | Structure (SMILES) | Ki [2] | other results
1 | Cc1ccc(-c2nc3c(C)nc(N)nc3n([C@H]3CC[C@H](O)CC3)c2=O)cn1 | 0.85 nM | 
2 | COc1ccc(-c2cc3c(OC)nc(N)nc3n(C(C)C)c2=O)cn1 | > 4000 nM | 
3 | Cc1nc(N)nc2c1nc(-c1ccn[nH]1)c(=O)n2C(C)C | 6 nM | 
4 | Cc1ccc(-c2nc3c(C)nc(N)nc3n([C@H]3CC[C@H](OCCO)CC3)c2=O)cn1 | 5.11 nM | 
5 | Cc1nc(N)nc2c1nc(-c1cc[nH]n1)c(=O)n2C1CCOCC1 | 0.8 nM | 

Further molecules by falling Ki [2], results first:

Row | Ki [2] | Structure (SMILES) | other results
6 | 113 nM | Cc1nc(N)nc2c1nc(-c1cnn[nH]1)c(=O)n2C(C)C | 
7 | 18 nM | COc1ncc(-c2nc3c(C)nc(N)nc3n(C(C)C)c2=O)cn1 | 
8 | 6.8 nM | COc1ccc(-c2nc3c(C)nc(N)nc3n([C@H]3CC[C@H](O)CC3)c2=O)cn1 | Activity [1]: 11%; Activity [3]: 58%; Activity [4]: 75%
9 | 5 nM | Cc1ccc(-c2nc3c(C)nc(N)nc3n(C3CCOCC3)c2=O)cn1 | 
10 | 5 nM | COc1ccc(-c2cc3c(C)nc(N)nc3n(C(C)C)c2=O)cn1 | 
